Like-named read-outs stand apart in the source and are kept apart here.
What was measured:
MDA-MB-361 = experiment: Biodistribution, MDA-MB-361 tumor; assay type: in vivo, mice; conditions: 60 min
Description: (§1) Mice were sacrificed at different time points by exsanguination.

SKOV-3 = experiment: Biodistribution, SKOV-3 tumor; assay type: in vivo, mice
Description: as §1

[1] = tested on: MCF7 and MCF7-p95HER2 xenografts; experiment: PET-CT imaging and kinetic modeling, HER2 negative xenografts; assay type: in vivo, mice; conditions: HER2 negative tumors
Description: Mice were anesthetized through isoflurane inhalation and scanned on a dedicated small animal PET-CT scanner (Siemens Multimodality Inveon, Erlangen, Germany). Low dose CT scans were first acquired (80 kVp, 0.5 mA, 220 degree rotation, 600 ms per degree exposure time, 80 μm reconstruction pixel size) for PET attenuation correction and to obtain an anatomical reference. PET images were acquired following a bolus i.v. injection of approximately 3.7 MBq [^18F]GE-226 in the tail vein. Dynamic emission scans were acquired in list mode format over 60 minutes. The acquired data were sorted into 0.5-mm sinogram bins and 19 time frames for image reconstruction by filtered back projection (4×15 seconds and 4×60 seconds followed by 11×300 seconds). The Siemens Inveon Research Workplace software was used for visualization of radiotracer uptake. 30 to 60-minute cumulative images of the dynamic data were employed to define 3-dimensional (3D) regions of interest (ROI). […] The count densities were averaged for all ROIs at each time point to obtain time versus radioactivity curves (TAC). Tumor TACs were normalized to injected dose measured by a VDC-304 dose calibrator (Veenstra Instruments, Joure, Netherlands) and normalized uptake was expressed as percentage injected dose per mL tissue (NUV; % ID/mL). […]

MCF7-p95HER2 = experiment: Biodistribution, MCF7-p95HER2 tumor; assay type: in vivo, mice; conditions: 60 min
Description: as §1

MCF7-HER2 = experiment: Biodistribution, MCF7-HER2 tumor; assay type: in vivo, mice; conditions: 60 min
Description: as §1

rhesus HER2 = experiment: Surface Plasmon Resonance, rhesus HER2-ECD-Fc; assay type: binding
Protocol: To characterize the affinity of [^19F]GE-226[SEQ ID NO 1] to HER2 protein, Surface Plasmon Resonance studies were conducted. Human, rhesus and rat HER2-ECD-Fc (SINO Biological, Beijing, China, Cat. Nr: 10004-H02H, 90020-K02H, and 80079-R02H), as well as human HER2-ECD-Fc-6×His (R&D Systems, Minneapolis, Minn., Cat. Nr: 1129-ER) and p95HER2 ECD-Fc-6×His (Syngene, Cambridge, United Kingdom) were diluted with 50 mM sodium acetate pH 4.5 (Biacore (GE Healthcare, Buckinghamshire, UK) coupling buffer) to a final concentration of 10 μg/mL. Antigen coupling to Biacore sensor chip CMS (Cat. Nr: BR-1005-30) was done according to amine coupling protocol from the instrument manual (Syngene). HBS-EP buffer (10 mM HEPES pH 7.4, 150 mM NaCl, 3 mM EDTA and 0.005% surfactant P20; GE Healthcare, Little Chalfont, United Kingdom, Cat. Nr: BR-1006-69) was used as running buffer and as solvent for the substances. The affinity studies were performed using a Biacore T100 (GE Healthcare). [^19F]GE-226 was diluted in HBS-EP buffer to 50 nM, 25 nM, 12.5 nM, 6.25 nM, 3.125 nM, 1.56 nM, 0.78 nM, 0.39 nM, 0.195 nM, 0.097 nM, 0.049 nM and 0 nM. The flow cells of the first chip comprised of blank, human HER2-ECD-Fc-6×His, p95HER2-ECD-Fc-6×His batch I and p95HER2-ECD-Fc-6×His batch II. The flow cells on the second chip contained blank, human HER2-ECD-Fc, rhesus HER2-ECD-Fc and rat HER2 ECD-Fc. The immobilization of the proteins was validated with protein-A (Sigma-Aldrich, St. Louis, Mo., Cat. Nr: P6031) and anti-human IgG antibody (Perkin Elmer, Waltham, Mass., Cat. Nr: NEF803001EA). [^19F]GE-226[SEQ ID NO 1] was pumped in duplicate over cells in randomized order for 60 sec at 50 μL/min flow rate followed by 120 sec of HBS-EP to monitor dissociation. This was followed by regeneration of the chip with 50 mM sodium hydroxide for 30 sec at 30 μL/min flow rate followed by 60 sec run of HBS-EP to stabilize the surface. Kinetic calculations were performed using Langmuir 1:1 binding model and simultaneous calculation of association and dissociation phase.

Row | Substance | Tissue uptake, MDA-MB-361 (MDA-MB-361) [% ID/g tissue] | Tissue uptake, SKOV-3 (SKOV-3; 60 min) [% ID/g tissue] | tumor/muscle ratio (SKOV-3; SKOV-3 tumor, 1 h) | NUV60 ([1]; PET, 60 minutes) [% ID/mL] | Ki (net irreversible uptake rate) ([1]; two-tissue irreversible compartmental model) [mL/cm^3/min] | Tissue uptake, MCF7-p95HER2 (MCF7-p95HER2) [% ID/g tissue] | Tissue uptake, MCF7-HER2 (MCF7-HER2) [% ID/g tissue] | Off-rate koff (rhesus HER2; Rhesus HER2) [s⁻¹] | On-rate kon (rhesus HER2; Rhesus HER2, Langmuir 1:1 binding model) [M⁻¹ s⁻¹] | Kd (rhesus HER2; Rhesus HER2, read-out: Affinity KD) [nM] | binding to rhesus HER2 (words) (rhesus HER2; listed as GE-226) | binding to rhesus HER2 (words) (rhesus HER2; listed as [^19F]-GE-226) | Kd (rhesus HER2; rhesus HER2, text, read-out: KD) [nM]
1 | [^18F]GE-226: HER2-binding 18F-radiolabelled Affibody molecule ZHER2:2891 | 17.00 ± 2.98 | 17.35 ± 0.83 | ~60 | 6.1±0.7 | 0.0069±0.0014 | 6.55 ± 0.13 | 11.06 ± 3.31 | – | – | – | – | – | –
2 | [^19F]GE-226: cold unlabeled non-radioactive 19F analogue of the tracer, used for SPR and blocking | – | – | – | – | – | – | – | 0.000425 | 6.37e+06 | 0.0667 | binds with high affinity | high affinity binding | 0.067

— patent publication US10646600B2, “HER2 polypeptides useful for imaging and monitoring tumors and cancers” (GE HEALTHCARE LIMITED, priority 2013, dated 2020)
